Results from ChEMBL document CHEMBL1157450, “Potent and selective small-molecule human urotensin-II antagonists with improved pharmacokinetic profiles” (Bioorg Med Chem Lett, 2008).
Calls of active or inactive are those of the source. The calls are words filed in the database; no cut-off is given here.

Assays:
Urotensin-2 receptor = target: T1, Urotensin-2 receptor (Homo sapiens, UniProt Q9UKP6); test: Binding affinity to human urotensin-2 receptor
T1 sequence (Q9UKP6 whole entry): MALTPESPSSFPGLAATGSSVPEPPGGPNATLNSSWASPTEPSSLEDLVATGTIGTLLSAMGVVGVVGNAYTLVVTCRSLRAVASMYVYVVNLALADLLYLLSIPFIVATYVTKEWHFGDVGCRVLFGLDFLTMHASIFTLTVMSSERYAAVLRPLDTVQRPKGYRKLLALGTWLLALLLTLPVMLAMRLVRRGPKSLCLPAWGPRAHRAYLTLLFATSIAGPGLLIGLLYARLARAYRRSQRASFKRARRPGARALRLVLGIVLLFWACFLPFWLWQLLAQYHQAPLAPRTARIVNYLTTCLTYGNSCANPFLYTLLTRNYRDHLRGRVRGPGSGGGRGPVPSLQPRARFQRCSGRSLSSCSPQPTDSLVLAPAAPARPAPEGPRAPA

[1] = target: Kappa-type opioid receptor (Homo sapiens, UniProt P41145); test: Agonist activity at kappa opioid receptor; type: functional
Kappa-type opioid receptor, sequence (P41145 whole entry): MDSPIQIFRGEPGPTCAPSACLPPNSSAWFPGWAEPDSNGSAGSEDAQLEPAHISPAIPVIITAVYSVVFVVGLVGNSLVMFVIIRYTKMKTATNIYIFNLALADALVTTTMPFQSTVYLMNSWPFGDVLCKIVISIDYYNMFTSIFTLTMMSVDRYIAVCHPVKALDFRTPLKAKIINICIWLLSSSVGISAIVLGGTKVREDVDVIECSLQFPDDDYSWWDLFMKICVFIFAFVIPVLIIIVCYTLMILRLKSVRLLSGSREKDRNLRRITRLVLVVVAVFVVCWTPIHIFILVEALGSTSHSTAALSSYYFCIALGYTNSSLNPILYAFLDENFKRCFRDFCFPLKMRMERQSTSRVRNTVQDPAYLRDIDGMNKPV

[2] = (§1) Binding affinity to batrachotoxinin-sensitive rat brain sodium channel
Cytochrome P450 2D6 = Cytochrome P450 2D6 (Homo sapiens, UniProt P10635); test: Inhibition of CYP2D6; type: ADME
Cytochrome P450 2D6, sequence (P10635 whole entry): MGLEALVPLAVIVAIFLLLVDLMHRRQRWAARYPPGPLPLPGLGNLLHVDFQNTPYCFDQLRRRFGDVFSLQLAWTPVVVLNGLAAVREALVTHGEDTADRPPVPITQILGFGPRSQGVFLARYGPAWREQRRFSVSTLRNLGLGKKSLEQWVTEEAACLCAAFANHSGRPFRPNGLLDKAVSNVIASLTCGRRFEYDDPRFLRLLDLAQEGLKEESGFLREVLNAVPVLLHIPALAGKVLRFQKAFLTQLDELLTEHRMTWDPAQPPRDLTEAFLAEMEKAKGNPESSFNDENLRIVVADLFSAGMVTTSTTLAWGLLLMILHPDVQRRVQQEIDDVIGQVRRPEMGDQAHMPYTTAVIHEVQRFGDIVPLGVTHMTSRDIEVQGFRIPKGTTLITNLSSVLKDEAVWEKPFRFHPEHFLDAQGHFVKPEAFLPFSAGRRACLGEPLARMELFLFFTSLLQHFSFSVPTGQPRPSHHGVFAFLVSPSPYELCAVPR

Cytochrome P450 3A4 = Cytochrome P450 3A4 (Homo sapiens, UniProt P08684); test: Inhibition of CYP3A4; type: ADME
Cytochrome P450 3A4, sequence (P08684 whole entry): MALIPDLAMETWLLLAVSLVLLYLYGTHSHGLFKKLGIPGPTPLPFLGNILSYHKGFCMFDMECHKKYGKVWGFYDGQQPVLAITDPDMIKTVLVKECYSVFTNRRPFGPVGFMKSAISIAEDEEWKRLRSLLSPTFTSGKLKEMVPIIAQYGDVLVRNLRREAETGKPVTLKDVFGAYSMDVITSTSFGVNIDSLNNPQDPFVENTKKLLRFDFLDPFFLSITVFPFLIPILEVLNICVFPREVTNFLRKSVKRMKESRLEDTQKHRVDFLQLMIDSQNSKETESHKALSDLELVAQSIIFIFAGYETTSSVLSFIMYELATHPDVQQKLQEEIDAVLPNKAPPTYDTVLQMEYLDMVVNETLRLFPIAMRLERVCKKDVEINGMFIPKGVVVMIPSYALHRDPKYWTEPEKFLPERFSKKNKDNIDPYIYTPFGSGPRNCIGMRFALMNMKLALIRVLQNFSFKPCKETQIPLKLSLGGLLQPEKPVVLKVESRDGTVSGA

[3] = Volume of distribution at steady state in rat at 2 mg/kg, iv and 4 mg/kg, po; type: ADME, organism-based; conditions: in vivo, read-out: Vdss
[4] = Oral bioavailability in rat at 4 mg/kg; type: ADME, organism-based; conditions: in vivo
[5] = Cmax in rat at 2 mg/kg, iv and 4 mg/kg, po; type: ADME, organism-based; conditions: in vivo
[6] = Half life in rat at 2 mg/kg, iv and 4 mg/kg, po; type: ADME, organism-based; conditions: in vivo
[7] = Clearance in rat at 2 mg/kg, iv and 4 mg/kg, po; type: ADME, organism-based; conditions: in vivo
Aorta = test: Inhibition of contraction in isolated rat aorta; type: functional
Rattus norvegicus = species: Rattus norvegicus; test: as §1

CN(CC(=O)N(C)C(CN1CCOCC1)c1ccc(-c2ccccc2)cc1)c1ccc(Cl)c(Cl)c1 (centres undefined)
Ki (Urotensin-2 receptor): 0.63 µM | EC50 [1]: 1.6 µM | Ki [2]: > 300 µM | IC50 (Cytochrome P450 2D6): 16 µM | IC50 (Cytochrome P450 3A4): 2.1 µM

CNC(=O)c1cccc(-c2ccc(C(CN3CCOCC3)N(C)C(=O)Cn3c(=O)cnc4cc(Cl)c(Cl)cc43)cc2)c1 (centres undefined)
Vd [3]: 2 L/kg | bioavailability [4]: 29% | Ki (Urotensin-2 receptor): 0.004 µM | EC50 [1]: 2 µM | Ki [2]: 30 µM | IC50 (Cytochrome P450 2D6): 33 µM | IC50 (Cytochrome P450 3A4): 5 µM | Cmax [5]: 1100 ng/mL | half-life [6]: 1.5 h | clearance [7]: 36 mL/min/kg

CN(C(=O)CN1C(=O)COc2cc(Cl)c(Cl)cc21)[C@@H](CN1CCOCC1)c1ccc(-c2ccccc2)cc1
Vd [3]: 11 L/kg | bioavailability [4]: 43% | Ki (Urotensin-2 receptor): 0.016 µM | EC50 [1]: 0.8 µM | Ki [2]: 7.7 µM | IC50 (Cytochrome P450 2D6): 33 µM | IC50 (Cytochrome P450 3A4): 9.1 µM | Cmax [5]: 200 ng/mL | half-life [6]: 2.2 h | clearance [7]: 120 mL/min/kg

CNC(=O)c1cccc(-c2ccc(C(CN3CCOCC3)N(C)C(=O)Cn3c(=O)cnc4cc(C)c(C)cc43)cc2)c1 (centres undefined)
Vd [3]: 1.7 L/kg | bioavailability [4]: 39% | Ki (Urotensin-2 receptor): 0.006 µM | EC50 [1]: 4 µM | Ki [2]: 30 µM | IC50 (Cytochrome P450 2D6): 33 µM | IC50 (Cytochrome P450 3A4): 9 µM | half-life [6]: 1 h | clearance [7]: 60 mL/min/kg

CN(CC(=O)N(C)C(CN1CCCC1)c1ccc(-c2ccccc2)cc1)c1ccc(Cl)c(Cl)c1 (centres undefined)
Ki (Urotensin-2 receptor): 0.02 µM | EC50 [1]: 0.016 µM | Ki [2]: 1.2 µM | IC50 (Cytochrome P450 2D6): 5.9 µM | IC50 (Cytochrome P450 3A4): 4.9 µM

CN(CC(=O)N1CCC[C@H](c2ccccc2)[C@@H]1CN1CCCC1)c1ccc(Cl)c(Cl)c1
Ki (Urotensin-2 receptor): 0.006 µM | EC50 [1]: 6.3 µM

CN(C(=O)CN1C(=O)COc2cc(Cl)c(Cl)cc21)C(CN1CCOCC1)c1ccc(-c2ccccc2)cc1 (racemic)
Vd [3]: 23 L/kg | Ki (Urotensin-2 receptor): 0.013 µM | EC50 [1]: 0.32 µM | Ki [2]: 11.1 µM | IC50 (Cytochrome P450 2D6): 33 µM | IC50 (Cytochrome P450 3A4): 4.6 µM | Cmax [5]: 160 ng/mL | half-life [6]: 2.4 h | clearance [7]: 150 mL/min/kg

COCCN(CC(=O)N(C)C(CN1CCCC1)c1ccc(-c2ccc(C(N)=O)cc2)cc1)c1ccc(Cl)c(Cl)c1 (centres undefined)
Ki (Urotensin-2 receptor): 0.003 µM | EC50 [1]: 0.1 µM | Ki [2]: 17 µM | IC50 (Cytochrome P450 2D6): 6.2 µM | IC50 (Cytochrome P450 3A4): 2.6 µM

CN(CC(=O)N1CCC[C@@H](c2ccccc2)[C@H]1CN1CCCC1)c1ccc(Cl)c(Cl)c1
EC50 [1]: 2 µM

CC(=O)Nc1ccc(-c2ccc(C(CN3CCOCC3)N(C)C(=O)CN3C(=O)COc4cc(C)c(C)cc43)cc2)cc1 (centres undefined)
Vd [3]: 2.8 L/kg | bioavailability [4]: 83% | Ki (Urotensin-2 receptor): 0.003 µM | EC50 [1]: 0.8 µM | Ki [2]: 30 µM | IC50 (Cytochrome P450 2D6): 30 µM | IC50 (Cytochrome P450 3A4): 6.4 µM | Cmax [5]: 600 ng/mL | half-life [6]: 1.7 h | clearance [7]: 94 mL/min/kg

CN(C(=O)CN1C(=O)COc2cc(Cl)c(Cl)cc21)[C@H](CN1CCOCC1)c1ccc(-c2ccccc2)cc1
Vd [3]: 19 L/kg | bioavailability [4]: 17% | Ki (Urotensin-2 receptor): 0.63 µM | EC50 [1]: 0.04 µM | Ki [2]: 9.4 µM | IC50 (Cytochrome P450 2D6): 33 µM | IC50 (Cytochrome P450 3A4): 4.2 µM | Cmax [5]: 230 ng/mL | half-life [6]: 2.6 h | clearance [7]: 130 mL/min/kg

COc1cccc(-c2ccc(C(CN3CCOCC3)N(C)C(=O)CN3C(=O)COc4cc(Cl)c(Cl)cc43)cc2)c1 (centres undefined)
Vd [3]: 20 L/kg | bioavailability [4]: 30% | Kb (Aorta): 0.021 µM | Ki (Urotensin-2 receptor): 0.005 µM | EC50 [1]: 0.16 µM | Ki [2]: 22 µM | IC50 (Cytochrome P450 2D6): 17 µM | IC50 (Cytochrome P450 3A4): 1 µM | Cmax [5]: 290 ng/mL | half-life [6]: 3.4 h | clearance [7]: 140 mL/min/kg

CN(CC(=O)N(C)C(CN1CCCC1)c1ccccc1)c1ccc(Cl)c(Cl)c1 (racemic)
Ki (Urotensin-2 receptor): 0.015 µM | EC50 [1]: 0.0002 µM | Activity (Rattus norvegicus): inactive | IC50 (Cytochrome P450 2D6): 0.16 µM | IC50 (Cytochrome P450 3A4): 3.3 µM

CN(CC(=O)N(C)[C@@H](CN1CCCC1)c1ccccc1)c1ccc(Cl)c(Cl)c1
Ki (Urotensin-2 receptor): 0.013 µM | EC50 [1]: 0.004 µM | Ki [2]: 2 µM

CN(C(=O)CN(CC#N)c1ccc(Cl)c(Cl)c1)C(CN1CCCC1)c1ccc(-c2cccc(C(N)=O)c2)cc1 (centres undefined)
Vd [3]: 20 L/kg | bioavailability [4]: 36% | Ki (Urotensin-2 receptor): 0.0003 µM | EC50 [1]: 0.032 µM | Ki [2]: 22 µM | IC50 (Cytochrome P450 2D6): 3.5 µM | IC50 (Cytochrome P450 3A4): 2.2 µM | Cmax [5]: 340 ng/mL | half-life [6]: 3.4 h | clearance [7]: 100 mL/min/kg

CN(C(=O)Cc1ccc(Cl)c(Cl)c1)[C@H](CN1CCCC1)c1ccccc1 [ICI-199,441]
Ki (Urotensin-2 receptor): 4 µM

CN(CC(=O)N(C)[C@H](CN1CCCC1)c1ccccc1)c1ccc(Cl)c(Cl)c1
Ki (Urotensin-2 receptor): 2.5 µM | EC50 [1]: 0.0001 µM

CN(CC(=O)N1CCCC(c2ccccc2)C1CN1CCCC1)c1ccc(Cl)c(Cl)c1 (racemic)
Ki [2]: 2.5 µM
